Test results taken from patent publication US20220312771A1, “BIOCIDAL COMPOSITE MATERIAL” (PENNOG LIMITED, priority 2019, published 2022).

Tested on: Chlorella sp.
Assay: Growth of Chlorella sp. in Jaworskis Medium with different concentrations of copper
Assay type: cell-based
Details: 14 days
Procedure: Fresh water algae Chlorella sp. cultivated at between 10° C. and 20° C. for 14 days on Jaworskis Medium (Table below) was inoculated into fresh, sterile Jaworskis Medium (prepared as per Table 11) containing copper sulphate solution and copper-containing soak solutions. The soak solution was obtained from the third soak of the second cycle of phototreated MSMCu from Example 3. The extent of growth of Chlorella sp. was observed after a further 14 days (Table 12).
After 14 days in different concentrations of copper.

O=S(=O)([O-])[O-].[Cu+2] [Copper sulphate solution, copper sulphate]
Growth of Chlorella sp., Abs 665 nm (copper concentration 1 μg/L): 0.137
Growth of Chlorella sp., Abs 780 nm (copper concentration 1 μg/L): 0.118
Growth of Chlorella sp., Abs 665 nm (copper concentration 2 μg/L): 0.143
Growth of Chlorella sp., Abs 780 nm (copper concentration 2 μg/L): 0.128
Growth of Chlorella sp., Abs 665 nm (copper concentration 5 μg/L): 0.103
Growth of Chlorella sp., Abs 780 nm (copper concentration 5 μg/L): 0.096
Growth of Chlorella sp., Abs 665 nm (copper concentration 7 μg/L): 0.081
Growth of Chlorella sp., Abs 780 nm (copper concentration 7 μg/L): 0.077
Growth of Chlorella sp., Abs 665 nm (copper concentration 9 μg/L): 0.092
Growth of Chlorella sp., Abs 780 nm (copper concentration 9 μg/L): 0.077
